From the NIST ThermoML archive (doi:10.1021/je5010643)

Assay: refractive index (Na D-line) (dimensionless); xn = mol fraction of the nth substance listed
Conditions: 101.32 kPa, Liquid, Standard Abbe refractometry

CC(C)C(=O)O [2-methylpropanoic acid] + C1COCCO1
refractive index
Conditions | x2 = 0 | x2 = 0.1 | x2 = 0.2 | x2 = 0.3 | x2 = 0.4 | x2 = 0.5 | x2 = 0.6 | x2 = 0.7 | x2 = 0.8 | x2 = 0.9
295.15 K | 1.3919 | 1.3955 | 1.3988 | 1.4021 | 1.4052 | 1.4082 | 1.411 | 1.4137 | 1.4161 | 1.4185
298.15 K | 1.3907 | 1.3942 | 1.3974 | 1.4007 | 1.4038 | 1.4068 | 1.4096 | 1.4122 | 1.4146 | 1.4171
301.15 K | 1.3895 | 1.3929 | 1.3961 | 1.3993 | 1.4024 | 1.4054 | 1.4082 | 1.4107 | 1.4132 | 1.4156
304.15 K | 1.3883 | 1.3916 | 1.3948 | 1.3979 | 1.401 | 1.4039 | 1.4067 | 1.4093 | 1.4117 | 1.4141
307.15 K | 1.3872 | 1.3904 | 1.3936 | 1.3967 | 1.3997 | 1.4026 | 1.4054 | 1.4079 | 1.4103 | 1.4127
310.15 K | 1.386 | 1.3891 | 1.3923 | 1.3953 | 1.3983 | 1.4011 | 1.4038 | 1.4063 | 1.4087 | 1.4112
313.15 K | 1.3849 | 1.3879 | 1.391 | 1.3941 | 1.397 | 1.3998 | 1.4025 | 1.4049 | 1.4073 | 1.4098
